Entries after “also recorded” stand apart in the source; their conditions may differ.
Columns and labels:
APOE*3Leiden.CETP mice = conditions: WO2016173923A1, cited from earlier work
male CDAA-HFD mice [1] = assay: CDAA/high-fat diet NASH mouse model: hepatic inflammation and NAFLD activity score; assay type: in vivo; conditions: 8 weeks QD; for NAFLD activity scores (NAS): compared to untreated vehicle group (FIG. 8B); for number of inflammatory cells (per mm^2): compared to untreated vehicle group and to baseline levels (FIG. 7A); for inflammatory foci (per mm^2): compared to untreated vehicle group and to baseline levels (FIG. 7B)
Source text: (§1) Although the widely used methionine-choline deficient (MCD) diet consistently reproduces severe NASH-like hepatic inflammation and fibrosis in mice, it is also associated with severe weight-loss (loss of both skeletal muscle and fat mass). This is associated with an increased risk of death which presents major problems for long-term fibrogenesis experiments. […] In the current study, male mice (strain C57BI/6JRj) were fed choline deficient high-fat diets (45% of total calories from fat; “CDAA/high-fat” or “CDAA-HFD”). The NASH inducing diet was instigated 6 weeks prior to the commencement of administration of active agents in order to evaluate treatment and reversal of NASH parameters. The NASH inducing CDAA-HFD was continued for the 8 weeks of administration of the indicated active agents and combinations thereof.
(§2) Prior to administration of the activate agents, animals were randomized into treatment groups based on body weight. A baseline group (n=12) was terminated at study start after 6 weeks on the CDAA-HFD diet. CDAA-HFD fed mice (n=10-12 per group) received daily per oral (PO) treatment with vehicle, Compound A (112 mg/kg), OCA (30 mg/kg), semaglutide (30 nmol/kg SC), firsocostat (5 mg/kg), Compound A+Semaglutide (112 mg/kg+30 nmol/kg), Compound A+OCA (112 mg/kg+30 mg/kg), and Compound A+firsocostat (112 mg/kg+5 mg/kg) for 8 weeks. Terminal liver biopsy were analyzed for histopathological scores. Terminal quantitative endpoints included plasma/liver biochemistry and liver histomorphometry.
(§3) Liver samples stained with Hematoxylin and Eosin (H&E) or Picro Sirius Red (PSR) were scored for NAS components (steatosis, lobular inflammation, and ballooning degeneration) and fibrosis stage respectively using the clinical criteria outlined by Kleiner et al., Hepatology, 2005; 41. Total NAS represents the sum of scores for steatosis, inflammation, and ballooning, and ranges from 0-8.
(§4) NAS and fibrosis stage was determined by deep learning applications developed by Gubra (Denmark) using the VIS software (Visiopharm®, Denmark) for a more accurate and objective method for staging disease in DIO-NASH mouse models.
(§5) Scanned H&E stained slides were analyzed in several steps: • 1. Tissue detection at low magnification, followed by deep learning-based detection of portal triads and central veins at 10× magnification. • 2. Another deep learning application detected nuclei of hepatocytes with lipid droplets, hepatocytes without lipids, ballooned hepatocytes, and inflammatory cells at 20× magnification. Inflammatory foci were defined as a cluster of >3 inflammatory cells. • 3. The inflammation score of the liver tissue sample was the average score for all 20× fields.

male CDAA-HFD mice [2] = assay: CDAA/high-fat diet NASH mouse model: hepatic steatosis (H&E image analysis, steatosis score); assay type: in vivo; conditions: 8 weeks QD; for percentage of hepatocytes with lipid droplets: compared to untreated vehicle group (FIG. 5B); for steatosis scores: compared to untreated vehicle group (FIG. 6); for hepatic steatosis area (relative liver lipids): compared to untreated vehicle group (FIG. 5A)
Source text: as §1, §2, §3, §4, §5
Steatosis score was calculated as percentage of hepatocytes with lipid droplets.
Hepatic steatosis area (relative liver lipids) was quantified on H&E stained slides by image analysis using the VIS software (Visiopharm®, Denmark). VIS protocols are designed to analyze the virtual slides in two steps: • 1. Tissue detection at low magnification (1× objective); and • 2. Detection of steatosis and tissue at high magnification (20× objective).
The quantitative estimates of steatosis were calculated as an area fraction as follows: […]

male CDAA-HFD mice [3] = assay: CDAA/high-fat diet NASH mouse model: plasma triglycerides and total cholesterol; assay type: in vivo; conditions: 8 weeks QD, compared to untreated vehicle group (FIG. 3A)
Source text: as §1
(§6) The aim of this study was to evaluate the effects of 8 weeks of administration of Compound A, OCA, semaglutide, and firsocostat alone and in combination on metabolic parameters, hepatic pathology, and on NAFLD Activity Score including Fibrosis Stage in male CDAA-HFD mice.
Prior to administration of the activate agents, animals were randomized into treatment groups based on body weight. […] Terminal liver biopsy were analyzed for histopathological scores. Terminal quantitative endpoints included plasma/liver biochemistry and liver histomorphometry.

male CDAA-HFD mice [4] = assay: CDAA/high-fat diet NASH mouse model: liver total cholesterol and triglycerides; assay type: in vivo; conditions: 8 weeks QD; for relative levels of liver total cholesterol (normalized to liver weight): compared to untreated vehicle group (FIG. 4A); for relative levels of liver triglycerides (normalized to liver weight): compared to untreated vehicle group (FIG. 4B)
Source text: as §1, §6, §2

[5] = CDAA/high-fat diet NASH mouse model: relative body weight and liver weight; assay type: in vivo; conditions: CDAA-HFD mice, 8 weeks QD; for liver weight: compared to untreated vehicle group (FIG. 1B)
Source text: as §1, §6, §2

male CDAA-HFD mice [6] = assay: CDAA/high-fat diet NASH mouse model: hepatic fibrosis markers (hydroxyproline, galectin-3, PSR, α-SMA); assay type: in vivo; conditions: 8 weeks QD; for galectin-3 hepatic fractional area: compared to untreated vehicle group (FIG. 9B); for hepatic fibrotic area determined by PSR staining: compared to untreated vehicle group (FIG. 10A); for sinusoidal fibrotic area (PSR): compared to untreated vehicle group (FIG. 10B)
Source text: as §1, §2
Scanned PSR stained slides were analyzed in several steps: • 1. Tissue detection at low magnification, followed by deep learning-based detection of portal triads and central veins at 10× magnification. Periportal zone was defined as 100 μm around the portal triads. • 2. Fibrosis fibers were detected using the linear Bayesian image analysis method in the periportal and sinusoidal zones. • 3. Bridging was detected using threshold image analysis based on a polynomial local linear filter feature. • 4. Different measures of size, shape and connectivity form both fibrosis and bridging fibrosis in the two zoned were used in a XGBoost classifier to predict fibrosis stage.
Immunohistochemistry (IHC)-positive staining was quantified by image analysis using the VIS software (Visiopharm®, Denmark) using two steps: • 1. Detection of tissue at low magnification (1× objective), excluding the liver capsule; and • 2. Detection of IHC-positive staining.
The quantitation of IHC-positive staining is calculated as an area fraction as follows: […]
IHC factional area quantification was assessed for galectin-3, collagen 1A1, and α-smooth muscle actin.
Hepatic factional area assessment with picrosirius red stain was determined using the same methods.
Hepatic fibrotic area was determined by staining with picrosirus red (PSR), which binds collagen, and histological quantitative assessment.

rodent NASH models = conditions: APOE*3Leiden.CETP high-fat diet, ob/ob AMLN, STAM and CDAA/high-fat diet mouse models; WO2019111048; cited from earlier work

Compound	NAFLD activity scores (NAS) (male CDAA-HFD mice [1])	number of inflammatory cells (per mm^2) (male CDAA-HFD mice [1])	inflammatory foci (per mm^2) (male CDAA-HFD mice [1])	percentage of hepatocytes with lipid droplets (male CDAA-HFD mice [2])	steatosis scores (male CDAA-HFD mice [2])	relative levels of liver total cholesterol (normalized to liver weight) (male CDAA-HFD mice [4])	relative levels of liver triglycerides (normalized to liver weight) (male CDAA-HFD mice [4])	liver weight [5]	galectin-3 hepatic fractional area (male CDAA-HFD mice [6])	hepatic fibrotic area determined by PSR staining (male CDAA-HFD mice [6])	sinusoidal fibrotic area (PSR) (male CDAA-HFD mice [6])	hepatic steatosis area (relative liver lipids) (male CDAA-HFD mice [2])	other results
CC/C=C\C/C=C\C/C=C\C/C=C\C/C=C\CCCCSC(CC)(CC)C(=O)O [Compound N, 2-ethyl-2-((5Z,8Z,11Z,14Z,17Z)-icosa-5,8,11,14,17-pentaenylthio)butanoic acid]													fibrosis (as measured by hydroxyproline/proline ratio) (APOE*3Leiden.CETP mice; APOE*3Leiden.CETP mice): effective in reducing fibrosis; influx of inflammatory cells into the liver (APOE*3Leiden.CETP mice): prevented; preventing diet-induced hepatic fibrosis, compared with rosiglitazone (APOE*3Leiden.CETP mice): superior to rosiglitazone
CC/C=C\C/C=C\C/C=C\C/C=C\C/C=C\CCCCOC(CC)C(=O)O (centres unmarked) [Compound A, 2-((5Z,8Z,11Z,14Z,17Z)-icosa-5,8,11,14,17-pentaenyloxy)butanoic acid]	significantly decreased	significant decrease; also recorded: below the baseline level	significant decrease; also recorded: below the baseline level	significantly decreased	decreased	significant decrease	significant decrease	decreased	significantly decreased	significantly decreased	Neither compound alone had a significant effect		plasma triglycerides (male CDAA-HFD mice [3]): significantly decreased; hepatic area expressing α-SMA (male CDAA-HFD mice [6]; compared to untreated vehicle group (FIG. 11B)): neither Compound A nor OCA significantly affecting; effect on aspects of NASH (hepatic steatosis, inflammation, fibrosis) (rodent NASH models): address multiple aspects of NASH, including hepatic steatosis, inflammation, and fibrosis
COc1ccccc1[C@H](Cn1c(=O)n(C(C)(C)C(=O)O)c(=O)c2c(C)c(-c3ncco3)sc21)OC1CCOCC1 [firsocostat]	significantly decreased			significantly decreased	decreased				neither semaglutidue nor firsocostat having a significant effect			significantly greater	
semaglutide		not having a significant effect	not having a significant effect	not significantly affecting either parameter; also recorded: did not significantly affect		did not significantly affect	not significantly affecting	decreased	not having a significant effect	did not significantly affect	Neither compound alone had a significant effect	not significantly affecting either parameter; also recorded: did not have a significant effect	last recorded relative body weight ([5]; compared to vehicle (FIG. 1A)): decreased; galectin-3 hepatic fractional area (male CDAA-HFD mice [6]; listed as semaglutidue): neither semaglutidue nor firsocostat having a significant effect; galectin-3 expressing area compared to baseline (male CDAA-HFD mice [6]; vs baseline (6 weeks CDAA-HFD, before therapy) (FIG. 9B)): significantly increased

Reference: patent US20240325336A1, “COMBINATION THERAPIES COMPRISING OXYGEN-CONTAINING STRUCTURALLY ENHANCED FATTY ACIDS FOR TREATMENT OF NON-ALCOHOLIC STEATOHEPATITIS” (NORTHSEA THERAPEUTICS B.V., priority 2020, published 2024)
